From PMC7407242, “Deamidated Human Triosephosphate Isomerase is a Promising Druggable Target” (Biomolecules, 2020)

Columns and labels:
[1] = target: T1, HsTIM (human triosephosphate isomerase) (Homo sapiens, UniProt P60174, N16D); experiment: residual activity after preincubation, coupled alpha-GPDH / NADH assay at […] nm; assay type: biochemical; conditions: read-out: activity dropped to 50%
T1 construct: gene TPI1; full-length; recombinant E. coli BL21-CodonPlus(DE3)-RIL, vector pET3a-HisTEV, N-terminal His6-TEV tag cut by TEVp for purified assays; tagged plasmid in E. coli tim-deletion BL21-Gold(DE3) cells for omeprazole; homodimer, 5 Cys per subunit
T1 sequence (P60174 2-249 N16D): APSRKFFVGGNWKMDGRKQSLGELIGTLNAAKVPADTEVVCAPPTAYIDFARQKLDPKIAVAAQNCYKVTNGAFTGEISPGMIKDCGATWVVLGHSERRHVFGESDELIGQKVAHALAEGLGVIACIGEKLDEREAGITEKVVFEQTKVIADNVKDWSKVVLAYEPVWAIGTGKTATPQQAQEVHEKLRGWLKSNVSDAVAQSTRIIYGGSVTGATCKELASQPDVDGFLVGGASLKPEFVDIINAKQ

[2] = target: T2, HsTIM (human triosephosphate isomerase) (Homo sapiens, UniProt P60174); experiment: Ellman free thiol count after derivatization; assay type: binding; design: gene TPI1; full-length; recombinant E. coli BL21-CodonPlus(DE3)-RIL, vector pET3a-HisTEV, N-terminal His6-TEV tag cut by TEVp for purified assays; tagged plasmid in E. coli tim-deletion BL21-Gold(DE3) cells for omeprazole; homodimer, 5 Cys per subunit; conditions: covalent; 250 µM compound, 2 h at 37 °C, enzyme 0.5 mg/mL, TE buffer pH 7.4
T2 sequence (P60174 2-249): as the sequence (P60174 2-249 N16D) above, with D15N counted along it
Excerpt: Ellman free thiol count after derivatization on HsTIM (human triosephosphate isomerase)

[3] = target: T2, HsTIM (human triosephosphate isomerase); experiment: TIM activity in lysate of treated E. coli tim-deletion cells; assay type: cell-based; design: gene TPI1; full-length; tagged plasmid in E. coli tim-deletion BL21-Gold(DE3) cells for omeprazole; homodimer, 5 Cys per subunit; conditions: residual activity; 0.75 mM omeprazole, 22 h at 37 °C, M9 medium; covalent
Excerpt: TIM activity in lysate of treated E. coli tim-deletion cells on HsTIM (human triosephosphate isomerase)

IC50 [1] [µM]	Derivatized Cys/Subunit [2] [Cys/subunit]	Enzyme Activity (%) [3] [%]	Structure (SMILES)
3			O=C(O)c1cc(SSc2ccc([N+](=O)[O-])c(C(=O)O)c2)ccc1[N+](=O)[O-] [DTNB, 5,5′-dithiobis-(2-nitrobenzoic acid)]
7.5	1		CSS(C)(=O)=O [MMTS]
6	1		CS(=O)(=O)SCCS(=O)(=O)O [MTSES, sodium 2-[(methylsulfonyl)sulfanyl] ethanesulfonate]
		96 ± 4	COc1ccc2[nH]c([S+]([O-])Cc3ncc(C)c(OC)c3C)nc2c1 (stereo not drawn) [omeprazole]
